Test system: DNFB-induced dermatitis in C3H/HeN mice
Conditions: 10 mg/kg orally once a day; 24 hours after DNFB application at fifth application; female C3H/HeN mice
Method: Effect of Test Compounds on Dermatitis Model Induced by Repeated Application of Hapten
As a control group, acetone:olive oil (1:3) was applied by the same protocol. Ear thickness was measured at every week before DNFB application and 24, 48 and 72 hours after DNFB application by using microgauge (Mitutoyo), and ear edema was evaluated by the increase in ear thickness compared to the ear thickness before the first DNFB application. […] The test compound was suspended in 0.5% hydroxypropylcellulose in distilled water (hereinafter referred to as “0.5% HPC-distilled water”) and was administered orally at doses of 2 and 10 mg/kg once a day, every day from just before the first application of hapten to the end of the experiment. Further, as a control, 0.5% HPC-distilled water instead of the test compound was administered by the same methods. The number of mice used in this experiment was seven per group.

| Compound | inhibition rate of the skin reaction [%] |
| --- | --- |
| COc1ccc(Cl)cc1CC1CNC(=O)CN(S(=O)(=O)c2ccc(Cl)cc2)C1=O (centres unmarked) [Compound 29, 6-(5-chloro-2-methoxybenzyl)-4-[(4-chlorophenyl)sulfonyl]-1,4-diazepan-2,5-dione] | 31.0 |
| COc1ccc(Cl)cc1CC1CNC(=O)CN(S(=O)(=O)c2ccc(Cl)c(N)c2)C1=O.Cl (centres unmarked) [Compound 90, 4-[(3-amino-4-chlorophenyl)sulfonyl]-6-(5-chloro-2-methoxybenzyl)-1,4-diazepan-2,5-dione Hydrochloride] | 25.1 |
| CC[C@@H](NC(=O)N1CC(=O)NC[C@@H](Cc2cc(Cl)ccc2OC)C1=O)c1cccc(C(=O)O)c1 [Compound 91, 3-[(1R)-1-({[(6R)-6-(5-chloro-2-methoxybenzyl)-3,7-dioxo-1,4-diazepan-1-yl]carbonyl}amino)propyl]benzoic Acid] | 26.1 |

Test system: not given
Conditions: not given

| Compound | melting point |
| --- | --- |
| COc1ccc(Cl)cc1CC1CNC(=O)CN(S(=O)(=O)c2ccc(Cl)cc2)C1=O (centres unmarked) [Compound 29, 6-(5-chloro-2-methoxybenzyl)-4-[(4-chlorophenyl)sulfonyl]-1,4-diazepan-2,5-dione] | 110 to 112 °C |
| COc1ccc(Cl)cc1C[C@H]1CNC(=O)[C@@H](C)N(S(=O)(=O)c2ccc(Cl)cc2)C1=O | 78 to 80 °C |
| COc1cc(Cl)c(F)cc1CC1CNC(=O)CN(S(=O)(=O)c2ccc(Cl)cc2)C1=O (centres unmarked) | 80 to 90 °C |
| CC[C@@H](NC(=O)N1CC(=O)NC[C@@H](Cc2cc(Cl)ccc2OC)C1=O)c1cccc(C(=O)[O-])c1.[Na+] | 161 to 163 °C |
| CC[C@@H](NC(=O)N1CC(=O)NC[C@@H](Cc2cc(Cl)ccc2OC)C1=O)c1cccc(C(=O)O)c1 [Compound 91, 3-[(1R)-1-({[(6R)-6-(5-chloro-2-methoxybenzyl)-3,7-dioxo-1,4-diazepan-1-yl]carbonyl}amino)propyl]benzoic Acid] | 121 to 123 °C |
| CC[C@@H](NC(=O)N1CC(=O)NCC(Cc2cc(Cl)ccc2OC)C1=O)C(=O)Nc1ccc(C)c(C(=O)O)c1 (some centres unmarked) | 132 to 134 °C |

More lines, now with the values ahead:

| melting point | Compound |
| --- | --- |
| 187 to 190 °C | O=C(CN1CC(Cc2ccccc2)C(=O)N(S(=O)(=O)c2ccc(Cl)cc2)CC1=O)NCc1ccccc1 (centres unmarked) |
| 64 to 66 °C | Cc1cccc(CC2CNC(=O)CN(S(=O)(=O)c3ccc(Cl)cc3)C2=O)c1 (centres unmarked) |
| 130 to 131 °C | COc1ccc(Cl)cc1CC1CNC(=O)CN(C(=O)Nc2cccc(NC(C)=O)c2)C1=O (centres unmarked) |
| 150 to 153 °C | COc1ccc(F)cc1/C=C1\CNC(=O)CN(S(=O)(=O)c2ccc(Cl)s2)C1=O |
| 141 to 142 °C | CC[C@@H](NC(=O)N1CC(=O)NCC(Cc2cc(Cl)ccc2OC)C1=O)C(=O)Nc1nnn[nH]1 (some centres unmarked) |
| 138 to 140 °C | COC(=O)COc1ccc(Cl)cc1CC1CNC(=O)CN(S(=O)(=O)c2ccc(Cl)cc2)C1=O (centres unmarked) |
| 239 °C (dec.) | N#Cc1ccc(S(=O)(=O)N2CC(=O)NC/C(=C\c3ccccc3)C2=O)cc1 |
| 73 to 76 °C | COC(=O)C[C@@H]1C(=O)NC[C@H](Cc2cc(F)ccc2OC)C(=O)N1S(=O)(=O)c1ccc(Cl)cc1 |

From patent US8507714B2, “7-membered ring compound and method of production and pharmaceutical application thereof” (Daiichi Sankyo Company, Limited, priority 2004, dated 2013)
